Experimental data as given in publication PMC11876601 (Molecular Systems Biology, 2025).
Values joined by “and” are separate entries in the source; they are usually repeats but may differ in a detail not shown here. Identical values can stand only once. Like-named read-outs stand apart in the source and are kept apart here.

How the values were obtained:
GSK3A ; P49840 = GSK3A ; P49840 (Homo sapiens, UniProt P49840); assay: biochemical; design: species or system AsPC-1; Kinobeads competition pulldown in AsPC-1 lysate with LC-MS/MS label-free quantification; apparent Kd
Sequence of GSK3A ; P49840 (P49840 whole entry): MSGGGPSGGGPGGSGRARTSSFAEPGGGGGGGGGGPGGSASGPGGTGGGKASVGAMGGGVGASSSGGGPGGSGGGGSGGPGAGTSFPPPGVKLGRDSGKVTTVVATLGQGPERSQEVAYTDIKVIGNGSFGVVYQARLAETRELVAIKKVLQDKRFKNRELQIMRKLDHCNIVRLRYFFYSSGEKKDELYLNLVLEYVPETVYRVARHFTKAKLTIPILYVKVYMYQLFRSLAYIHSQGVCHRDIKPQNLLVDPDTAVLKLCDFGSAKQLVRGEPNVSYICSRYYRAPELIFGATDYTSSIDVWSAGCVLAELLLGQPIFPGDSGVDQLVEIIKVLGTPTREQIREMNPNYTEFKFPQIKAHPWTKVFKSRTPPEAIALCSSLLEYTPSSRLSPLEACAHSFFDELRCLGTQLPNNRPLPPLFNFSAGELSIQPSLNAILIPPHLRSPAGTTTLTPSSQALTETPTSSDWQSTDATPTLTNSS
Method: (§1) This was followed by incubation with Kinobeads ε (17.5 µl of settled beads) for 30 min at 4 °C to enrich kinases. […] Enriched proteins were reduced with 50 mM DTT in 8 M urea, 40 mM Tris-HCl, pH 7.4 for 30 min at room temperature, and alkylated with 55 mM chloroacetamide. After reducing the urea concentration to 1–2 M, proteins were digested with trypsin at 37 °C for 16 h. Subsequently, eluted peptides were desalted using SepPak tC18 µElution plates (Waters), freeze-dried by vacuum centrifugation, and stored at −20 °C. Proteins were filtered by potential contaminants, reversed hits and proteins identified only by site. Residual binding of proteins was calculated from LFQ intensities as the ratio between drug doses and vehicle. […] Only kinases quantified with at least 4 unique peptides in the vehicle experiment were considered. Potential targets were further curated through manual inspection of dose-dependent reduction in MS/MS and unique peptide counts.

MAP3K1 ; Q13233 = MAP3K1 ; Q13233 (Homo sapiens, UniProt Q13233); assay: biochemical; design: species or system AsPC-1; Kinobeads competition pulldown in AsPC-1 lysate with LC-MS/MS label-free quantification; apparent Kd
Method: as §1

ATR = biological target: T1, ATR (Homo sapiens, UniProt Q13535); assay: Kinobeads competition pulldown in AsPC-1 lysate; format: binding
T1 construct: endogenous in cells; host or cells: AsPC-1 lysate
T1 sequence (Q13535 whole entry): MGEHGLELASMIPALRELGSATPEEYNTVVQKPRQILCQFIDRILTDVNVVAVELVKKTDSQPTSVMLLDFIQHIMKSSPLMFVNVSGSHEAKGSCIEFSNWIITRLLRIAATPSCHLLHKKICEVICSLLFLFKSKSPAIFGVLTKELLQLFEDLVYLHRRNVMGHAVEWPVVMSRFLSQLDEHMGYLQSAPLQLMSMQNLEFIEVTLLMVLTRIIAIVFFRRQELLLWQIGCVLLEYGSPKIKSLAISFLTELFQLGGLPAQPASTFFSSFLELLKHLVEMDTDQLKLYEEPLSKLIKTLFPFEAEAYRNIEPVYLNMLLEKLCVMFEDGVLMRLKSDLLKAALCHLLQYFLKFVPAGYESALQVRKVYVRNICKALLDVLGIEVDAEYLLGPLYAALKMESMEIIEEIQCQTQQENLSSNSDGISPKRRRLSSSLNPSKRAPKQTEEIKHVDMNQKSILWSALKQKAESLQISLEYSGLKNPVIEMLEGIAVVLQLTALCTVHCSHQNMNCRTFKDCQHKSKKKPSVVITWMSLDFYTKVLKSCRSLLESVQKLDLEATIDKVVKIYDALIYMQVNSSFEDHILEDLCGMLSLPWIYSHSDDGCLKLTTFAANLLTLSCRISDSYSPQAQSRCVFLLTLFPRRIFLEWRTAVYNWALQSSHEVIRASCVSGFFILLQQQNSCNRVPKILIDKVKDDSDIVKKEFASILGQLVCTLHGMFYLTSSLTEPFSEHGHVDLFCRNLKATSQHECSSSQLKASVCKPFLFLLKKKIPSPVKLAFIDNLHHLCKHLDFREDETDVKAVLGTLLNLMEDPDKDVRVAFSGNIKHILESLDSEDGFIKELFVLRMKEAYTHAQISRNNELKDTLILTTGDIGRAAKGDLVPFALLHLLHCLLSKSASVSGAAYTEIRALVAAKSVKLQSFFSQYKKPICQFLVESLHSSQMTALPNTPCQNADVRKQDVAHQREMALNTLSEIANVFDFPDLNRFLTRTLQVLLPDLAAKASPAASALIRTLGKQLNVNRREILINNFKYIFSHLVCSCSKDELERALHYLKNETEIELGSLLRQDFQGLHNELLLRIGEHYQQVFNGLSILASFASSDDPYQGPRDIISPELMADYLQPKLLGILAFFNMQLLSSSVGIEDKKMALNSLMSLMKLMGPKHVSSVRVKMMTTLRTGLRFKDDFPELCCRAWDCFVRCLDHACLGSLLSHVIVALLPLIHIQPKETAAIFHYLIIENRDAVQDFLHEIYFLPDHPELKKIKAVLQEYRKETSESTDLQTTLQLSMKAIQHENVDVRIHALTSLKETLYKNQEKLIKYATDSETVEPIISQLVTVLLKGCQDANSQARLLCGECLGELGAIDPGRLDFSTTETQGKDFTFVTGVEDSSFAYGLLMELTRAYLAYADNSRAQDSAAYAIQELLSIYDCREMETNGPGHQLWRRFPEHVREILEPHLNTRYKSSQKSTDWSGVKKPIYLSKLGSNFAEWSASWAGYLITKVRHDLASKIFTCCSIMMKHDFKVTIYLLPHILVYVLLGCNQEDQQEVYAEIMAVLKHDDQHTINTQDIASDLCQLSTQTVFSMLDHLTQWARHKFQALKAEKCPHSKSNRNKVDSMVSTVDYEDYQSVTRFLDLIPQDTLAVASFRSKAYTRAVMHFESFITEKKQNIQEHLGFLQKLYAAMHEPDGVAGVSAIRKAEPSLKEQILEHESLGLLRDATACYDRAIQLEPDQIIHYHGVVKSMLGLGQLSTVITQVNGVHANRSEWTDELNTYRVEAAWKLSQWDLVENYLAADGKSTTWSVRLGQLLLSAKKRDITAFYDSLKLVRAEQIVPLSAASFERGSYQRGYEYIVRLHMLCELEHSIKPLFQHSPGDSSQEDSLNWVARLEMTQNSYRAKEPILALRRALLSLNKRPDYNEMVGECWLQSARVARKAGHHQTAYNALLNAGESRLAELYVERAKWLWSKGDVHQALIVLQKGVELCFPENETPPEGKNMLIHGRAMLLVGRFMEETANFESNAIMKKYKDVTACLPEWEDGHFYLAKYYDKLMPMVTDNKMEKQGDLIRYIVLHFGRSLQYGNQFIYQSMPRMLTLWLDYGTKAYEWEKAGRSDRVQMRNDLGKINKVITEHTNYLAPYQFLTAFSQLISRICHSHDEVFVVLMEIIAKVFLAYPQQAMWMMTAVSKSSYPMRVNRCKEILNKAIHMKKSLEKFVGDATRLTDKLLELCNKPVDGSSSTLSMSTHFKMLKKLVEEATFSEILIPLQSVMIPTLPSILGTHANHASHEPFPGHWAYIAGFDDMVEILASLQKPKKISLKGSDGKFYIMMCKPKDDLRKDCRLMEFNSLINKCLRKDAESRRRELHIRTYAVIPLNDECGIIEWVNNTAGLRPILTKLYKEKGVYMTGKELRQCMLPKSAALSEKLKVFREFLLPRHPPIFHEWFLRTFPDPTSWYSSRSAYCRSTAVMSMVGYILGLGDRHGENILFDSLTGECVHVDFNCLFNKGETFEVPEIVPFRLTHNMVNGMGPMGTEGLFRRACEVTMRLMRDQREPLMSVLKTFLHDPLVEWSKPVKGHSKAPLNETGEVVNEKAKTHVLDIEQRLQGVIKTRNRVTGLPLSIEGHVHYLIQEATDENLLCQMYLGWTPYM
T1 sequence (Q8WXE1 whole entry partner): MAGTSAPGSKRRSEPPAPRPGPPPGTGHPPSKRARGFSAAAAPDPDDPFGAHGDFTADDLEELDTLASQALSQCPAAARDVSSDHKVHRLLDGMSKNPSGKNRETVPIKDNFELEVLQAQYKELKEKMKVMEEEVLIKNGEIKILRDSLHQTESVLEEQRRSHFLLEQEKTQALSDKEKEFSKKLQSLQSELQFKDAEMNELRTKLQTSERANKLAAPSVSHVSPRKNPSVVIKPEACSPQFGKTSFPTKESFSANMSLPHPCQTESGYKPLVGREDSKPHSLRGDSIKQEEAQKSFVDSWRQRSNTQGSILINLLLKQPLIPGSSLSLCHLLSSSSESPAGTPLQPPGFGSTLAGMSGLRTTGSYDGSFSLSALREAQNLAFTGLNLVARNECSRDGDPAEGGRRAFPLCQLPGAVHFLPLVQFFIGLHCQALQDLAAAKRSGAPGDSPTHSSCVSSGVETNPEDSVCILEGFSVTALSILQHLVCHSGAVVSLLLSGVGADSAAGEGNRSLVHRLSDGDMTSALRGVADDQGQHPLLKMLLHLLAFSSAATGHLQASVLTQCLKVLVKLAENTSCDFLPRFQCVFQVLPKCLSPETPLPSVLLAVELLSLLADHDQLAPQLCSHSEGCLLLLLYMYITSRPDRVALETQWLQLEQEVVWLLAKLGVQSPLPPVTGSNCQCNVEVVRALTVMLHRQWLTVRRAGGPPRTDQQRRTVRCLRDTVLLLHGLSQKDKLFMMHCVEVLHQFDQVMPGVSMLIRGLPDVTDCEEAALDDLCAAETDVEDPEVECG
Method: This was followed by incubation with Kinobeads ε (17.5 µl of settled beads) for 30 min at 4 °C to enrich kinases. […] Enriched proteins were reduced with 50 mM DTT in 8 M urea, 40 mM Tris-HCl, pH 7.4 for 30 min at room temperature, and alkylated with 55 mM chloroacetamide. After reducing the urea concentration to 1–2 M, proteins were digested with trypsin at 37 °C for 16 h. Subsequently, eluted peptides were desalted using SepPak tC18 µElution plates (Waters), freeze-dried by vacuum centrifugation, and stored at −20 °C.
For LC-MS/MS, dried peptides were reconstituted in 0.1% formic acid and analyzed on a Dionex Ultimate3000 nano HPLC (Thermo Scientific) coupled to an Orbitrap Fusion Tribrid mass spectrometer (Thermo Scientific), which was run in data-dependent mode. Peptides were first delivered to a trap column (100 µm × 2 cm, packed in-house with Reprosil-Gold C18 ODS-3 5 µm resin, Dr. Maisch, Ammerbuch) and subsequently washed with solvent A0 (0.1% formic acid in HPLC grade water) at 5 µl/min for 10 min. […] For MS2, up to 12 peptide precursors were isolated (isolation width of 1.2 Th) and subjected to HCD fragmentation using 30% normalized collision energy. […] The duration of dynamic exclusion was set to 30 s.
Oxidized methionine and N-terminal acetylation were set as variable modification, and cysteine carbamidomethylation was set as fixed modification. Label-free quantification (LFQ) and match-between-runs were enabled. All searches were performed with 1% PSM and protein FDR.
Proteins were filtered by potential contaminants, reversed hits and proteins identified only by site. Residual binding of proteins was calculated from LFQ intensities as the ratio between drug doses and vehicle. […] Only kinases quantified with at least 4 unique peptides in the vehicle experiment were considered. Potential targets were further curated through manual inspection of dose-dependent reduction in MS/MS and unique peptide counts.

p-sites in Dan-G cells = assay: Phosphoproteomics GEM + Elimusertib vs. GEM (non-decryptM); format: cell-based, human
Method: (§2) Cell culture medium was replaced 24 h after seeding. […] For time point 0, AsPC-1 cells were treated with a vehicle and lysed immediately. The final DMSO concentration in all experiments was 0.2%.
(§3) Oxidized methionine, N-terminal acetylation, and phosphorylation (STY) were set as variable modification, and cysteine carbamidomethylation was set as fixed modification. All other search parameters were kept as default, except for protein FDR which was set to 1. […] Potential contaminants and reversed hits were removed, and only peptides with unambiguously assigned phosphorylation sites with a localization probability of > 0.75 were retained. To acquire site-level quantification values, the corrected reporter ion intensities of peptides containing the same phosphosite(s) were summed up. Median centering of corrected TMT reporter channel intensities was performed. […] Channel 11 served as a vehicle for the chemodrug treatment and was not subjected to curve fitting. Instead, row-wise normalization was performed across all four TMT-batches using the medians of channels 10 and 11. […] Phosphoproteomic experiments in six additional cell lines (not dose-resolved) were median-centered within each TMT-batch, prior to row-wise normalization across all TMT-batches using a common channel filled with AsPC-1 lysate (Appendix Table S5). Two-sided t-test analysis and multiple hypothesis testing correction was performed in R using the same parameters and thresholds as described above.

p-sites in PSN-1 cells = assay: as above; format: cell-based, human
Method: as §2, §3

[1] = test system: p-sites in PaTu-8988-T cells; assay: as above; format: cell-based, human
Method: as §2, §3

[2] = test system: p-sites in MiaPaCa-2 cells; assay: as above; format: cell-based, human
Method: as §2, §3

p-sites in Capan-1 cells = assay: as above; format: cell-based, human
Method: as §2, §3

p-sites in PANC-1 cells = assay: as above; format: cell-based, human
Method: as §2, §3

LATS1 = conditions: cited from earlier work
SIK2 = conditions: cited from earlier work
PKN1 = conditions: cited from earlier work
PAK4 = conditions: cited from earlier work
Q6ZSR9 = conditions: cited from earlier work
[3] = LATS1, 5 cell line mix lysate, Kinobeads ε, ref Reinecke et al. (2023)
[4] = SIK2, 5 cell line mix lysate, Kinobeads ε, ref Reinecke et al. (2023)
[5] = PKN1, 5 cell line mix lysate, Kinobeads ε, ref Reinecke et al. (2023)
[6] = PAK4, 5 cell line mix lysate, Kinobeads ε, ref Reinecke et al. (2023)
[7] = Q6ZSR9, 5 cell line mix lysate, Kinobeads ε, ref Reinecke et al. (2023)

## Nc1nn2cc(F)cnc2c1C(=O)Nc1cncc(F)c1N1CCC(C(=O)N2CCN(C3COC3)CC2)CC1 [Gartisertib]
GSK3A ; P49840
  Kd: 0.719 nM
MAP3K1 ; Q13233
  Kd: 422 nM
ATR; AsPC-1 lysate, read-out: KDapp
  Kd: 318 nM

## CNCc1ccc(-c2cc(-c3nc(-c4ccc(S(=O)(=O)C(C)C)cc4)cnc3N)on2)cc1 [Berzosertib]
GSK3A ; P49840
  Kd: 39.7 nM
MAP3K1 ; Q13233
  Kd: 11.6 nM
ATR; Berzosertib: vs. all except ACVR2, Elimusertib: vs. PIK3C2A, Ceralasertib: vs. CDK7
  affinity to ATR over off-targets: > 10 fold

## C[C@@H]1COCCN1c1cc(-c2ccnn2C)c2ccnc(-c3ccn[nH]3)c2n1 [Elimusertib]
p-sites in Dan-G cells
  Mean log2 PTM response (GEM+Elimusertib vs. GEM): -1.06 and -1.18 and -1.05
p-sites in PSN-1 cells
  Mean log2 PTM response (GEM+Elimusertib vs. GEM): -1.04 and -1.16
[1]
  Mean log2 PTM response (GEM+Elimusertib vs. GEM): -1.04
[2]
  Mean log2 PTM response (GEM+Elimusertib vs. GEM): -1.06
p-sites in Capan-1 cells
  Mean log2 PTM response (GEM+Elimusertib vs. GEM): -1.06
p-sites in PANC-1 cells
  Mean log2 PTM response (GEM+Elimusertib vs. GEM): -1.13

## C[C@]12O[C@H](C[C@]1(O)CO)n1c3ccccc3c3c4c(c5c6ccccc6n2c5c31)CNC4=O [Lestaurtinib]
LATS1; LATS1, 4 cell line mix lysate, Kinobeads y, ref Klaeger et al. (2017)
  EC50: […]
SIK2; SIK2, 4 cell line mix lysate, Kinobeads y, ref Klaeger et al. (2017)
  EC50: […]
PKN1; PKN1, 4 cell line mix lysate, Kinobeads y, ref Klaeger et al. (2017)
  EC50: […]
PAK4; PAK4, 4 cell line mix lysate, Kinobeads y, ref Klaeger et al. (2017)
  EC50: […]
Q6ZSR9; Q6ZSR9, 4 cell line mix lysate, Kinobeads y, ref Klaeger et al. (2017)
  EC50: 105 nM

## Nc1ccn([C@@H]2O[C@H](CO)[C@@H](O)C2(F)F)c(=O)n1 [GEM, Gemcitabine]
p-sites in Dan-G cells; source data 5F (p-site not named), DANG
  Mean log2 TMT reporter ion intensity: 20.35
p-sites in PSN-1 cells; source data 5F (p-site not named), PSN1
  Mean log2 TMT reporter ion intensity: 19.41
[1]; source data 5F (p-site not named), PATU8988T
  Mean log2 TMT reporter ion intensity: 19.97
[2]; source data 5F (p-site not named), MIAPACA2
  Mean log2 TMT reporter ion intensity: 18.24
p-sites in Capan-1 cells; source data 5F (p-site not named), CAPAN1
  Mean log2 TMT reporter ion intensity: 20.29
p-sites in PANC-1 cells; source data 5F (p-site not named), PANC1
  Mean log2 TMT reporter ion intensity: 18.30

## COc1cc(N2CCC(N3CCN(C)CC3)CC2)ccc1Nc1ncc(Cl)c(Nc2ccccc2P(C)(C)=O)n1 [Brigatinib]
LATS1; [3]
  EC50: 3550 nM
  pKDapp: 5.55
LATS1; LATS1, 5 cell line mix lysate, Kinobeads ε, ref Reinecke et al. (2023), read-out: KDapp
  Kd: 2790 nM
SIK2; [4]
  EC50: 46.5 nM
  pKDapp: 7.62
SIK2; SIK2, 5 cell line mix lysate, Kinobeads ε, ref Reinecke et al. (2023), read-out: KDapp
  Kd: 24.1 nM
PKN1; [5]
  EC50: 2270 nM
  pKDapp: 5.70
PKN1; PKN1, 5 cell line mix lysate, Kinobeads ε, ref Reinecke et al. (2023), read-out: KDapp
  Kd: 1990 nM
PAK4; [6]
  EC50: 1190 nM
  pKDapp: 6.14
PAK4; PAK4, 5 cell line mix lysate, Kinobeads ε, ref Reinecke et al. (2023), read-out: KDapp
  Kd: 718 nM
Q6ZSR9; [7]
  EC50: 296 nM
  pKDapp: 6.65
Q6ZSR9; Q6ZSR9, 5 cell line mix lysate, Kinobeads ε, ref Reinecke et al. (2023), read-out: KDapp
  Kd: 225 nM
